Data as given in PMC5564600 (Oncotarget, 2017).

Columns and labels:
Experiment in all cases: biochemical
Format in all cases: binding
[1] = molecular target: T1, panel of 442 kinases (Homo sapiens, UniProt Q16566); conditions: CAMK4; for remaining activity at 1 µM: read-out: % of control at 1 µM
T1 construct: purchased Ambit Biosciences (scanMAXX KINOMEscan)
T1 sequence (Q16566 1-473): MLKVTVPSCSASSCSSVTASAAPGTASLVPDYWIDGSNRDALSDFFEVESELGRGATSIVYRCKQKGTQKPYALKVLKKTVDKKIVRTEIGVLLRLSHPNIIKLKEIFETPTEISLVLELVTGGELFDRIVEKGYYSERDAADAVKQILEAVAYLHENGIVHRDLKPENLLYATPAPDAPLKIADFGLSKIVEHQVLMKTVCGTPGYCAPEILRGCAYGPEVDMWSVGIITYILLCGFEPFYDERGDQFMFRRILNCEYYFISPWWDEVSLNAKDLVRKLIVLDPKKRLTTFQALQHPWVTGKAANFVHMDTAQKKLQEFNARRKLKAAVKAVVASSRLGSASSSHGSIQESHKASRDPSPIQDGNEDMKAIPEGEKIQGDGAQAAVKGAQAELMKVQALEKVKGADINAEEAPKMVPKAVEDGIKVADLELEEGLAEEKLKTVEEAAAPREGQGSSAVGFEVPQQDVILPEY

[2] = molecular target: T2, panel of 442 kinases (Homo sapiens, UniProt O15075); conditions: DCAMKL1; for remaining activity at 1 µM: read-out: % of control at 1 µM
T2 construct: purchased Ambit Biosciences (scanMAXX KINOMEscan)
T2 sequence (O15075 whole entry): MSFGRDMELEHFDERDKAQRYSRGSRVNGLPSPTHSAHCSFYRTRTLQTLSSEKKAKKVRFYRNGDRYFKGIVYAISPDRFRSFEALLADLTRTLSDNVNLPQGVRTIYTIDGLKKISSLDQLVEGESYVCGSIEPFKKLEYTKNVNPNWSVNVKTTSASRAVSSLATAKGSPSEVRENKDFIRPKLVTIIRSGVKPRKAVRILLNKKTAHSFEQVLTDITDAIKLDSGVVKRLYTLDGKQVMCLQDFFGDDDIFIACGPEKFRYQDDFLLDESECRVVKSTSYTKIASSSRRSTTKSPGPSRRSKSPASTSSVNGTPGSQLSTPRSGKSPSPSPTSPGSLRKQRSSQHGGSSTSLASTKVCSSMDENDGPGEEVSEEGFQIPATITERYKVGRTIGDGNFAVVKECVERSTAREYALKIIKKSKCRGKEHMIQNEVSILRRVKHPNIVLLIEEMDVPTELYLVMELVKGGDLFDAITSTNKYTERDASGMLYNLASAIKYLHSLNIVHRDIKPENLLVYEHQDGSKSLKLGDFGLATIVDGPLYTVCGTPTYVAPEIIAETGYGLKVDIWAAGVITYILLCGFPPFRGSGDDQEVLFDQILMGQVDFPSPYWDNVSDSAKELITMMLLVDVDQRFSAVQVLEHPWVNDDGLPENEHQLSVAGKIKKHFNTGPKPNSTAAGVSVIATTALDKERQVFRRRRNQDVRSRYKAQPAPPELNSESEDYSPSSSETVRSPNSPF

[3] = molecular target: T3, panel of 442 kinases (Homo sapiens, UniProt P00519, M351T); conditions: ABL1(M351T)-phosphorylated; for remaining activity at 1 µM: read-out: % of control at 1 µM
T3 construct: purchased Ambit Biosciences (scanMAXX KINOMEscan)

[4] = molecular target: T4, panel of 442 kinases (Homo sapiens, UniProt P24723); conditions: kinase PRKCH; for remaining activity at 1 µM: read-out: PRKCH (% of control at 1 µM)
T4 construct: purchased Ambit Biosciences (scanMAXX KINOMEscan)
T4 sequence (P24723 whole entry): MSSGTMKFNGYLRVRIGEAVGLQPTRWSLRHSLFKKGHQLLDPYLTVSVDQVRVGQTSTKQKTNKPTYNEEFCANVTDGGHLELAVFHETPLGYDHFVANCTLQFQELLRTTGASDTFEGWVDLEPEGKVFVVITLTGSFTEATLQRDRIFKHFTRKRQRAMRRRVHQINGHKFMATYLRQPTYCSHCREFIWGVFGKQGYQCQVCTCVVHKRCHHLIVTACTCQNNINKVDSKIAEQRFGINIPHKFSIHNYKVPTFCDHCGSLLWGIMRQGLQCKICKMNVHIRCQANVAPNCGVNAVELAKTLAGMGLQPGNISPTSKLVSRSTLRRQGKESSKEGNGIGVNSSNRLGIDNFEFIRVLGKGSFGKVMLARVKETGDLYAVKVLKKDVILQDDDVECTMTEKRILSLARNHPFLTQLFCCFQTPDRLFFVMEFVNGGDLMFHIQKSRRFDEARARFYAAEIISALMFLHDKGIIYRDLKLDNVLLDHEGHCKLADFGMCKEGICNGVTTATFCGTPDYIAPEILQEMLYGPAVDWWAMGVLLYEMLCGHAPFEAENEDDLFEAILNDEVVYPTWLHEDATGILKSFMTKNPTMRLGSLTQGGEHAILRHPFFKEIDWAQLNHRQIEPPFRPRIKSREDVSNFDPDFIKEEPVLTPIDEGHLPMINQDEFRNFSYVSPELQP

[5] = molecular target: T5, panel of 442 kinases (Homo sapiens, UniProt O96013); conditions: kinase PAK4; for remaining activity at 1 µM: read-out: % of control at 1 µM
T5 construct: purchased Ambit Biosciences (scanMAXX KINOMEscan)
T5 sequence (O96013 whole entry): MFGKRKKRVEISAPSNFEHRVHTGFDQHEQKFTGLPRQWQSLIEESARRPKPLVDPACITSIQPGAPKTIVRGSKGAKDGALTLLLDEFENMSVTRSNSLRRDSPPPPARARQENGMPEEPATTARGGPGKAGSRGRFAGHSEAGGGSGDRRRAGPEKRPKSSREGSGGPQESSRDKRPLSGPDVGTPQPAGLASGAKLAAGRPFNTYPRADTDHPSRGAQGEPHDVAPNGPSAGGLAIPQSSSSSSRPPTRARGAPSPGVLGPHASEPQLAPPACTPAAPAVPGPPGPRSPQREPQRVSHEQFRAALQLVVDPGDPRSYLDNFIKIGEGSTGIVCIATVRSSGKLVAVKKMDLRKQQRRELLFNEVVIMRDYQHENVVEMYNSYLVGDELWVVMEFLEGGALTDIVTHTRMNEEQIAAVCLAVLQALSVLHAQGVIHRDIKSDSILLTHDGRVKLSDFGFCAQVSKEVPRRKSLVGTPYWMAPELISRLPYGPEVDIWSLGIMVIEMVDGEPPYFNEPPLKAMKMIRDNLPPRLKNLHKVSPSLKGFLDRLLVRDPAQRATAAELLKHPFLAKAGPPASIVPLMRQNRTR

[6] = molecular target: T6, panel of 442 kinases (Homo sapiens, UniProt P30291); conditions: kinase WEE1; for remaining activity at 1 µM: read-out: WEE1 (% of control at 1 µM)
T6 construct: purchased Ambit Biosciences (scanMAXX KINOMEscan)
T6 sequence (P30291 whole entry): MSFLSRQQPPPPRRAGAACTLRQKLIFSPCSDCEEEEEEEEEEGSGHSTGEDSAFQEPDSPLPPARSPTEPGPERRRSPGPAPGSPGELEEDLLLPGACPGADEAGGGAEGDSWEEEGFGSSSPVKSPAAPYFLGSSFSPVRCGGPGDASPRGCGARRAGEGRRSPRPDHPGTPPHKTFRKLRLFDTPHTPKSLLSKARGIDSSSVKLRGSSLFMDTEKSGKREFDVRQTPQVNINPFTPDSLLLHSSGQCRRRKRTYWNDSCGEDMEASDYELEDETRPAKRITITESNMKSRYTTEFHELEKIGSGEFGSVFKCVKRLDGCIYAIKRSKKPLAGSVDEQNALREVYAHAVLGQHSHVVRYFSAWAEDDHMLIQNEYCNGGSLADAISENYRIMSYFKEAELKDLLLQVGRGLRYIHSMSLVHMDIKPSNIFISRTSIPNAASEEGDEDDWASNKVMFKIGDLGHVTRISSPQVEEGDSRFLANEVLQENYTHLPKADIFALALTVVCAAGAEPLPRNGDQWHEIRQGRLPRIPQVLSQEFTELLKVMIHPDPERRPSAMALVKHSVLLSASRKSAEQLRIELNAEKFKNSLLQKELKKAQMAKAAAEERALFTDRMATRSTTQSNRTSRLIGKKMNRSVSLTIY

[7] = molecular target: T7, panel of 442 kinases (Homo sapiens, UniProt Q13153); conditions: kinase PAK1; for remaining activity at 1 µM: read-out: % of control at 1 µM
T7 construct: purchased Ambit Biosciences (scanMAXX KINOMEscan)
T7 sequence (Q13153 whole entry): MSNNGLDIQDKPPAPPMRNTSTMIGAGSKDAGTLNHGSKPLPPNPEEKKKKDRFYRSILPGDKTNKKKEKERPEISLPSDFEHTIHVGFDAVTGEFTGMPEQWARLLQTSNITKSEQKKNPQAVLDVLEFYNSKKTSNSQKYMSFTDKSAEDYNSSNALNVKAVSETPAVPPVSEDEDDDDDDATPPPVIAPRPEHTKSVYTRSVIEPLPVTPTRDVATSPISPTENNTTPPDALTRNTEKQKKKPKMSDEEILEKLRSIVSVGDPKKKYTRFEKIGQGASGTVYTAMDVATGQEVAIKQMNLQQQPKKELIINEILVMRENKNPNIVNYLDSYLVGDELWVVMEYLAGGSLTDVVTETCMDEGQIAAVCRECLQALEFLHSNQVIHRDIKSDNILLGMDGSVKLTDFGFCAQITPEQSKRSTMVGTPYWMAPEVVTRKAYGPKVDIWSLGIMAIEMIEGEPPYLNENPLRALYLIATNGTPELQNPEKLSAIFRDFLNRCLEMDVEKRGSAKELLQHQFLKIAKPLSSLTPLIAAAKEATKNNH

[8] = molecular target: T8, panel of 442 kinases (Homo sapiens, UniProt Q13043); conditions: kinase MST1; for remaining activity at 1 µM: read-out: % of control at 1 µM
T8 construct: purchased Ambit Biosciences (scanMAXX KINOMEscan)
T8 sequence (Q13043 1-487): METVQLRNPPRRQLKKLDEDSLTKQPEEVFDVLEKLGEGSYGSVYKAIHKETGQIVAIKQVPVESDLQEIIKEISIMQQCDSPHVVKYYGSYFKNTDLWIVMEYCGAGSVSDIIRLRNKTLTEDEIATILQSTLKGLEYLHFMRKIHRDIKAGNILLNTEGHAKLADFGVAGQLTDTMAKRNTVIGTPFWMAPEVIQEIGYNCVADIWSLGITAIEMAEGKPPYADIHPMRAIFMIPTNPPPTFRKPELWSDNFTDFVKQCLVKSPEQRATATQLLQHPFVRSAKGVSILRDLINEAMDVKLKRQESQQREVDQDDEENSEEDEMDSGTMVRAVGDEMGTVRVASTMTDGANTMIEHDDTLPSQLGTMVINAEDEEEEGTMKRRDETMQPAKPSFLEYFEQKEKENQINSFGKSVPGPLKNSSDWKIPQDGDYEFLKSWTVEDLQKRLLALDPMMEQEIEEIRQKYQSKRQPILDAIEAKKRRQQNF

[9] = molecular target: T9, panel of 442 kinases (Homo sapiens, UniProt P54760); conditions: EPHB4; for remaining activity at 1 µM: read-out: % of control at 1 µM
T9 construct: purchased Ambit Biosciences (scanMAXX KINOMEscan)
T9 sequence (P54760 16-987): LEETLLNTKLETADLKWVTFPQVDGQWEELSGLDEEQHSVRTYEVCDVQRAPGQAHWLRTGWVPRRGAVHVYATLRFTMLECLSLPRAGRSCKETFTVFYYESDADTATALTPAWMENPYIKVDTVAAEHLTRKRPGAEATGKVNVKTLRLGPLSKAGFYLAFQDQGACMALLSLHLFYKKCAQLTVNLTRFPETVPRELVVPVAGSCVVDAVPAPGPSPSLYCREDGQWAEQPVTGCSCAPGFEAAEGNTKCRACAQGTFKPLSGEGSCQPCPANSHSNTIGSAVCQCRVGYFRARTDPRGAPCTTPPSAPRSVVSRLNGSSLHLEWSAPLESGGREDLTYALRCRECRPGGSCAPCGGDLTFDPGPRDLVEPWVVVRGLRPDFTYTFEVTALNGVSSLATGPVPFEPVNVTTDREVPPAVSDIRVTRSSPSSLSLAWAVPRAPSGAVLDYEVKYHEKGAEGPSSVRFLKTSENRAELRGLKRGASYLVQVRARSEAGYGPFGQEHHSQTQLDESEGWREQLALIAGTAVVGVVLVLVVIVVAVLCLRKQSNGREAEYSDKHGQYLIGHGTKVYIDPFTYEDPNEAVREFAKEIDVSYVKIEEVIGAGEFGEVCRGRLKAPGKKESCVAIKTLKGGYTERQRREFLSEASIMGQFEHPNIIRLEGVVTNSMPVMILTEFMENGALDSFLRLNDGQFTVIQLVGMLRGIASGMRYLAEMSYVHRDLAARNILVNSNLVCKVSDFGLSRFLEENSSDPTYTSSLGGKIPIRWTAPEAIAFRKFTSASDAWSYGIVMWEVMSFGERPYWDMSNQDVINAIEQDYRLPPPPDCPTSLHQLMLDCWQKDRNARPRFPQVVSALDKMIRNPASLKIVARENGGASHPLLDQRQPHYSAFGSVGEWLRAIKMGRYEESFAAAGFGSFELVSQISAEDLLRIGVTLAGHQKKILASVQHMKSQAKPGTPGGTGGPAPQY

[10] = molecular target: T10, panel of 442 kinases (Homo sapiens, UniProt Q13177); conditions: kinase PAK2; for remaining activity at 1 µM: read-out: % of control at 1 µM
T10 construct: purchased Ambit Biosciences (scanMAXX KINOMEscan)
T10 sequence (Q13177 whole entry): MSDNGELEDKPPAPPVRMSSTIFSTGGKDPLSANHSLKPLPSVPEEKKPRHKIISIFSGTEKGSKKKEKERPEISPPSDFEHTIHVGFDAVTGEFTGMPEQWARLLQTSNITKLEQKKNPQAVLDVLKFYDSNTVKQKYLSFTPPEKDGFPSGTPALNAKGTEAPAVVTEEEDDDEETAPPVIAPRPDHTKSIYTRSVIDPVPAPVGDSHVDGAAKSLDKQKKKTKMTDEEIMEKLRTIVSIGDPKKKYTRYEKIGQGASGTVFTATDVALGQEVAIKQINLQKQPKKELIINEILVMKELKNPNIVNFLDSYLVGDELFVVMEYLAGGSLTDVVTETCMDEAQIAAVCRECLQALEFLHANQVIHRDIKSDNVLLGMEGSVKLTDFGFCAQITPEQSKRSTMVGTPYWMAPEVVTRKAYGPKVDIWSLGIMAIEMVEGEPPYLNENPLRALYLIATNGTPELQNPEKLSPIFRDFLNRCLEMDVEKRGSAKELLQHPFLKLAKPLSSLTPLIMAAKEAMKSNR

[11] = 10 µM, read-out: % of control at 10 µM

Question: What does the source list for Nc1cc(C(F)(F)F)c(-c2cc(N3CCOCC3)nc(N3CCOCC3)n2)cn1 [Buparlisib]?
Answer: remaining activity at 1 µM [1]: 89%; remaining activity at 10 µM [1, 11]: 100%; remaining activity at 1 µM [2]: 100%; remaining activity at 10 µM [2, 11]: 92%; remaining activity at 1 µM [3]: 90%; remaining activity at 10 µM [3, 11]: 97%; remaining activity at 1 µM [4]: 99%; remaining activity at 10 µM ([4]; 10 µM, read-out: PRKCH (% of control at 10 µM)): 100%; remaining activity at 1 µM [5]: 93%; remaining activity at 10 µM [5, 11]: 100%; remaining activity at 1 µM [6]: 100%; remaining activity at 10 µM ([6]; 10 µM, read-out: WEE1 (% of control at 10 µM)): 100%; remaining activity at 1 µM [7]: 100%; remaining activity at 10 µM [7, 11]: 96%; remaining activity at 1 µM [8]: 95%; remaining activity at 10 µM [8, 11]: 100%; remaining activity at 1 µM [9]: 100%; remaining activity at 10 µM [9, 11]: 100%; remaining activity at 1 µM [10]: 68%; remaining activity at 10 µM [10, 11]: 83%

Question: With Cn1c(=O)n(-c2ccc(C(C)(C)C#N)cc2)c2c3cc(-c4cnc5ccccc5c4)ccc3ncc21 [Dactolisib, 2-methyl-2-[4-(3-methyl-2-oxo-8-quinolin-3-yl-2,3-dihydroimidazo[4,5-c]quinolin-1-yl)-phenyl] propionitrile] as the molecule, how does the remaining activity at 1 µM [2] read?
Answer: Its remaining activity at 1 µM is 100%.

Question: And the remaining activity at 1 µM [3]?
Answer: The remaining activity at 1 µM was 89%.

Question: What about the remaining activity at 1 µM [4] of the same molecule?
Answer: The remaining activity at 1 µM was 78%.

Question: What about the remaining activity at 1 µM [5] of the same molecule?
Answer: Its remaining activity at 1 µM is 100%.

Question: And the remaining activity at 1 µM [6]?
Answer: Its remaining activity at 1 µM is 100%.

Question: And the remaining activity at 1 µM [7]?
Answer: The remaining activity at 1 µM was 100%.

Question: And the remaining activity at 1 µM [8]?
Answer: The remaining activity at 1 µM was 66%.

Question: And the remaining activity at 1 µM [9]?
Answer: The remaining activity at 1 µM was 97%.

Question: COc1ncc(-c2ccc3nccc(-c4ccnnc4)c3c2)cc1NS(=O)(=O)c1ccc(F)cc1F [Omipalisib] was tested. Which remaining activity at 1 µM [1] did it give?
Answer: Its remaining activity at 1 µM is 100%.

Question: What about the remaining activity at 1 µM [2] of the same molecule?
Answer: The remaining activity at 1 µM was 92%.

Question: What about the remaining activity at 1 µM [3] of the same molecule?
Answer: Its remaining activity at 1 µM is 94%.

Question: What about the remaining activity at 1 µM [4] of the same molecule?
Answer: Its remaining activity at 1 µM is 100%.

Question: And the remaining activity at 1 µM [5]?
Answer: The remaining activity at 1 µM was 95%.

Question: What about the remaining activity at 1 µM [6] of the same molecule?
Answer: Its remaining activity at 1 µM is 100%.

Question: What about the remaining activity at 1 µM [7] of the same molecule?
Answer: The remaining activity at 1 µM was 55%.

Question: What about the remaining activity at 1 µM [8] of the same molecule?
Answer: The remaining activity at 1 µM was 100%.

Question: And the remaining activity at 1 µM [9]?
Answer: The remaining activity at 1 µM was 100%.

Question: And the remaining activity at 1 µM [10]?
Answer: Its remaining activity at 1 µM is 57%.

Question: What does the source list for FC(F)c1nc2ccccc2n1-c1nc(N2CCOCC2)nc(N2CCOCC2)n1 [ZSTK474, 2-(difluoromethyl)-1-[4,6-di(4-morpholinyl)-1,3,5-triazin-2-yl]-1H-benzimidazole]?
Answer: remaining activity at 1 µM [1]: 92%; remaining activity at 1 µM [2]: 97%; remaining activity at 1 µM [3]: 100%; remaining activity at 1 µM [4]: 98%; remaining activity at 1 µM [5]: 96%; remaining activity at 1 µM [6]: 100%; remaining activity at 1 µM [7]: 100%; remaining activity at 1 µM [8]: 53%; remaining activity at 1 µM [9]: 92%; remaining activity at 1 µM [10]: 100%
